Assay results: patent US5792799A, “Parenteral delivery of MAO A inhibitors” (Athena Neurosciences, Inc., priority 1996, dated 1998)
Several values for one entry are separate records, joined by “and”; a condition that tells them apart may be missing. Identical values can stand only once.

Key:
MAO A [1] = experiment: MAO A activity in mouse striatum, liver and gut after subcutaneous clorgyline (Example 1); type: in vivo, C57BL/6 mice
Description: All experiments were performed in strict accordance with the National Institutes of Health (NIH) Guide for the Care and Use of Laboratory Animals. C57BL/6 mice were housed under constant temperature (22° C.) and humidity conditions in a room illuminated for 12 hours per day, with food and water freely available. […] Animals were sacrificed five hours after drug administration. Brains were removed, and dissection of the striata was performed within two minutes of cervical dislocation. Tissues were collected in buffer (pH 7.2), sonicated for approximately 10 seconds, and stored at -70° C. Similar procedures were used to collect, homogenize and store samples from the liver and gut of the animals.
(§1) MAO A and MAO B activity were measured as previously described (Yu and Hertz, J. Neurochem. 39:1492-5 (1982)), using 14C-phenylethylamine and 14C-5-hydroxytryptamine as selective substrates for MAO B and MAO A, respectively. Preliminary experiments were performed to ensure that enzyme activity was linear with respect to time and enzyme concentration, and that no more than 10-20% of the substrate was consumed during the incubation period (data not shown). Protein was measured by the method of Lowry et al. (J. Biol. Chem. 193:265-75 (1951)).

MAO A [2] = experiment: Comparison of parenteral (s.c.) and oral clorgyline on MAO A activity in striatum, gut and liver (Example 2); type: in vivo, mice; details: for MAO activity in the striatum, % of control values: mouse striatum; for extent of inhibition of intestinal MAO A activity: mouse intestine
Description: as §1

MAO A [3] = experiment: Effect of repeated s.c. or oral administration of clorgyline on MAO A activity in striatum, intestine and liver (Example 3); type: in vivo, mice; details: for MAO A inhibition in the liver: single or multiple
Description: as §1
MAO A activity was measured and compared in the striatum, intestine and liver.

[4] = 0.6 mg/kg parenteral (s.c.), 5 h
[5] = 0.6 mg/kg, s.c. or oral, mouse liver
[6] = 0.6 mg/kg oral, single administration, 5 h

Question: C#CCN(C)CCCOc1ccc(Cl)cc1Cl [clorgyline] was tested. Which “MAO A activity remaining in the gut” value (MAO A [1]; 0.6 mg/kg s.c., 5 h after dose, mouse gut) did it give?
Answer: 50% and > 50%

Question: What about the “MAO A activity remaining in the liver” value (MAO A [1]; 0.6 mg/kg s.c., 5 h after dose, mouse liver) of the same compound?
Answer: > 50%

Question: And the “inhibition of MAO A activity in the striatum” value (MAO A [1]; 0.6 mg/kg s.c., 5 h after dose, mouse striatum)?
Answer: 90% and > 90%

Question: And the “MAO A inhibition in the gut” value (MAO A [1]; 0.6 mg/kg s.c., mouse gut)?
Answer: approximately 50%

Question: And the “MAO A inhibition in the liver” value (MAO A [1]; 0.6 mg/kg s.c., mouse liver)?
Answer: approximately 50%

Question: And the “MAO A activity in the gut” value (MAO A [1]; 0.8 mg/kg s.c., 5 h after dose, mouse gut)?
Answer: 31%

Question: What about the “MAO A activity in the liver” value (MAO A [1]; 0.8 mg/kg s.c., 5 h after dose, mouse liver) of the same compound?
Answer: about 50%

Question: What about the “MAO activity in the gut, % of control” value (MAO A [1]; 1 mg/kg s.c., 5 h after dose, mouse gut) of the same compound?
Answer: 27 % of control

Question: And the “MAO activity in the liver, % of control” value (MAO A [1]; 1 mg/kg s.c., 5 h after dose, mouse liver)?
Answer: 51 % of control

Question: What about the “MAO A inhibition in the striatum” value (MAO A [1]; 1 mg/kg s.c., 5 h after dose, mouse striatum) of the same compound?
Answer: > 90%

Question: And the “MAO activity in the striatum, % of control values” (MAO A [2]; 0.6 mg/kg oral gavage, 5 h)?
Answer: 40 % of control

Question: What about the “extent of inhibition of intestinal MAO A activity” value (MAO A [2]; 0.6 mg/kg oral, 5 h) of the same compound?
Answer: 89%

Question: What about the “extent of inhibition of intestinal MAO A activity” value (MAO A [2]; [4]) of the same compound?
Answer: 55%

Question: What about the “MAO activity in the striatum, % of control values” (MAO A [2]; [4]) of the same compound?
Answer: 11 % of control

Question: And the “MAO A activity maintained in the gut” value (MAO A [2]; 0.6 mg/kg parenteral injection, mouse gut)?
Answer: 50%

Question: What about the “difference in extent of inhibition of MAO A activity in the liver, oral compared with subcutaneous” value (MAO A [2]; 0.6 mg/kg, 5 h, mouse liver) of the same compound?
Answer: No significant difference

Question: What about the “MAO A activity present in the liver after clorgyline exposure” value (MAO A [2]; [5]) of the same compound?
Answer: more than 50%

Question: And the “intestine MAO A, % of control activity” value (MAO A [3]; 0.6 mg/kg oral, multiple administration (five, every 24 h), 5 h after last)?
Answer: ~15 % of control

Question: What about the “intestine MAO A, % of control activity” value (MAO A [3]; [6]) of the same compound?
Answer: Approximately 20 % of control

Question: And the “striatal MAO A inhibition” value (MAO A [3]; [6])?
Answer: 15%

Question: What about the “MAO A inhibition in the liver” value (MAO A [3]; 0.6 mg/kg oral) of the same compound?
Answer: ≤ 25%

Question: And the “striatal MAO A residual activity, % of control” value (MAO A [3]; 0.6 mg/kg per os, multiple treatments (five, every 24 h), 5 h after last)?
Answer: about 50 % of control

Question: And the “striatal MAO A activity, % of the control value” (MAO A [3]; 0.6 mg/kg s.c., five consecutive treatments every 24 h, 5 h after last)?
Answer: 2 % of control

Question: What about the “inhibition of intestinal MAO A” value (MAO A [3]; 0.6 mg/kg s.c., injected once, 5 h) of the same compound?
Answer: 50%

Question: And the “striatal MAO A inhibition” value (MAO A [3]; 0.6 mg/kg s.c., single administration, 5 h)?
Answer: approximately 90%

Question: What about the “MAO A inhibition in the liver” value (MAO A [3]; 0.6 mg/kg subcutaneous) of the same compound?
Answer: ≤ 25%

Question: What about the “change in extent of MAO inhibition in the liver, single versus multiple treatments” value (MAO A [3]; [5]) of the same compound?
Answer: no significant changes
